In publication PMC12040169 (PLOS Biology, 2025):

Test: in vitro
Settings: human, hela cells, % viability

Compound | viability at 28.5 h, 10 µM [%]
Nc1cccc(-c2nc(-c3cncnc3)cnc2N)c1 [CBK063907] | 102
CC(Oc1cccc(Cl)c1)C(=O)NN (centres unmarked) [CBK261207] | 90.1
Cc1nn(CC(=O)N2CCC(C)CC2)c(=O)c2cc3ccsc3n12 [CBK284081] | 91.3
O=C(NCc1cccc(C(F)(F)F)c1)N1CCN(c2ccc(F)cc2)CC1 [CBK156390] | 89.4
CCc1nn(CC(=O)NC2CC2)c(=O)c2cc3sc(C)cc3n12 [CBK284099] | 91.9
CCCC/C=C/c1cncc(NCCO)n1 [CBK065419] | 109
CC(C)NC(=O)[C@H]1CN2CCC1C[C@@H]2Cn1cc(C2(O)CCCCC2)nn1 (some centres unmarked) [CBK288732] | 99.3
CCCCCn1c(Cc2ccccc2)n[nH]c1=O [CBK013059] | 98.3
COC(=O)c1ccc(CN2CCN(CCN3C(=O)c4cccc5cccc(c45)C3=O)CC2)cc1 [CBK074518] | 88.8
COc1ccccc1-c1nnc(SCC(=O)N2CCN(c3ccccc3)CC2)[nH]1 [CBK270105] | 95.6
Cc1noc(C)c1S(=O)(=O)n1c(=O)n(Cc2ccc(S(C)(=O)=O)cc2)c2ccccc21 [CBK106536] | 93.4
COc1cc(NC(=O)COc2cccc3ccccc23)c(C(=O)O)cc1OC [CBK268253] | 76.6
CS(=O)(=O)N1CC2(CCNCC2)c2ccccc21 [CBK005171] | 94.4
COc1ccc(C(C)C)cc1-c1cnc2[nH]c(=O)n(CCc3cccnc3)c2n1 [CBK064343] | 90.4
COc1cccc(C(=O)NCCC(=O)N2CCc3c(nc[nH]c3=O)C2)c1 [CBK307231] | 103
O=C(O)CC(c1ccccc1)c1ccc2c(c1)OCO2 (centres unmarked) [CBK286983] | 87.8
CC(=O)Nc1nc(NC(C)=O)n(-c2ccccc2)n1 [CBK287938] | 86
O=C(Nc1ncc(Cc2ccc(F)cc2)s1)c1ccc(-c2ccc(F)cc2)o1 [CBK300522] | 99.5
CN(c1ccccc1)S(=O)(=O)c1ccc(C(=O)NCc2cccnc2)cc1 [CBK297522] | 95.5
CN(Cc1ccccc1)c1nc2c(c(=O)n(C)c(=O)n2C)n1CCSc1ncccn1 [CBK269564] | 97.7
CC(C)NC(=O)Cn1nc(-c2cc3c(s2)CCC3)oc1=O [CBK283801] | 88.3
Cc1nn(C)c(C)c1NC(=O)c1ccc(S(=O)(=O)N(C)C)cc1 [CBK266059] | 93.8
NC(=O)c1ccccc1NC(=O)C1CCC(C(=O)Nc2ccccc2C(N)=O)CC1 (centres unmarked) [CBK268716] | 87.1

Compound | viability at 28.5 h, 10 µM [%]
Cc1ccccc1-c1ccccc1CC1(C(N)=O)CCN(C(=O)c2cccc(F)c2)CC1 [CBK285726] | 94.2
CCOC(=O)C1CC1CN1CCN(S(=O)(=O)c2ccc(OCC)c3ncccc23)CC1 (centres unmarked) [CBK062785] | 92.9
NNC(=O)c1cc(-c2ccc(-c3ccccc3)cc2)nc2ccc(Br)cc12 [CBK261760] | 104
N#CCCCN1CCC2(CC1)OCCc1c2[nH]c2ccc(Br)cc12 [CBK040105] | 88.4
O=C(NCc1ccccn1)c1cnn(-c2ccc(Cl)cc2)c1C(F)(F)F [CBK116637T] | 101
COc1cc2c(cc1NC(=O)c1cccc([N+](=O)[O-])c1)oc1ccccc12 [CBK262958] | 94.4
COc1cccc(OC)c1-c1cn2ccnc2c(NC2CC2)n1 [CBK038020] | 104
O=C(c1cc(-c2ccncc2)nc2ccc(Cl)cc12)N1CCN(CCc2ccccc2)CC1 [CBK267719] | 86.6
O=C(CSc1cccc2ccccc12)Nc1ccc([N+](=O)[O-])cc1O [CBK268696] | 115
O=c1cc(N2CCCCC2)cnn1Cc1nccs1 [CBK307678] | 87.4
CC(=O)N1CC[C@H](c2nc3cccc(C(N)=O)c3[nH]2)C1 [CBK289415] | 98.3
Cc1nnc2sc(-c3ccc(NC(=O)CSc4ccc(Cl)cc4)cc3)nn12 [CBK266800] | 108
C=C(C)CNC(=O)c1cc(Br)cnc1N(C)S(C)(=O)=O [CBK076498] | 94.6
CCSc1nnc2c(n1)OC(C)Nc1ccccc1-2 (centres unmarked) [CBK025684] | 102
O=c1[nH]cc([C@H]2C[C@@H](O)[C@@H](CO)O2)c(=O)[nH]1 [CBK201158] | 95.4
COc1ccc(C(C)C)cc1-c1nccnc1NCC1COC(C)(C)O1 (centres unmarked) [CBK036930] | 101
CSc1ccccc1C(=O)NCCCn1ccnc1 [CBK269749] | 85.3
CN(C)S(=O)(=O)Nc1cccc2cc[nH]c12 [CBK159505] | 92.8
O=S(=O)(Cc1ccccc1)c1cc2c(N3CCNCC3)nccc2s1 [CBK200017C] | 91.9
CC(C)(CN1CCCC1)NC(=O)c1cc(Cl)c(Cl)cc1C(=O)O [CBK287141] | 89
Cc1ccc(-c2ccnc3[nH]c(=O)[nH]c(=O)c23)cc1 [CBK287978] | 89.7
CN(C)CCCNc1ccc(C(F)(F)F)cn1 [CBK269414] | 86.2
COc1ccc(S(=O)(=O)NCCNC(=O)c2cc(-c3cccc(S(C)(=O)=O)c3)cnc2NCC2CC2)cc1 [CBK076425] | 94.6

Compound | viability at 28.5 h, 10 µM [%]
COc1ccc(S(=O)(=O)N(C)CC(=O)Nc2ccc(S(N)(=O)=O)cc2)cc1 [CBK265922] | 102
O=C(Nc1cccnc1)c1ccc(F)cc1Cl [CBK288246] | 89.9
Cn1c(=O)c2c(nc(CN3CCN(Cc4ccccc4)CC3)n2CCc2ccccc2)n(C)c1=O [CBK269523] | 90.9
CN1CCCC1CCNC(=O)c1ccc(-c2ccoc2)nc1 (centres unmarked) [CBK156255] | 99.8
OCC1CCCCC1NCCCC(c1ccc(F)cc1)c1ccc(F)cc1 (centres unmarked) [CBK015830C] | 104
Cc1ccc2oc(=O)cc(N/N=C(\Cl)C(N)=S)c2c1 [CBK022357] | 85.8
CC(=O)c1ccc(-c2nc(NC(=O)c3cccs3)cnc2-c2ccc(F)cc2)s1 [CBK037558] | 81.8
COc1ccc(CCNC(=O)CN2CCCC2c2cnn(C)c2)cc1 (centres unmarked) [CBK305371] | 84.2
CC(=O)NC(CC(=O)N1CCc2sccc2C1c1ccccc1)c1ccc(F)cc1 (centres unmarked) [CBK285548] | 112
CC1CCCC(C)N1C(=O)Cn1c(=O)n(C)c2ncccc21 (centres unmarked) [CBK282389] | 107
Cc1ccn(CCNC(=O)c2cc(-c3cccs3)no2)n1 [CBK282679] | 78.9
NC(=O)c1cccc(-c2nccnc2NCCO)c1 [CBK088993] | 97
Cc1ccc(-c2nn(CCC#N)cc2C(=O)N2CCOCC2)cc1 [CBK305939] | 96.2
Cc1ccc(OCc2ccccc2)c(C(CCN(C(C)C)C(C)C)c2ccccc2)c1 (centres unmarked) [CBK017906] | 108
O=C(Nc1ccc(F)c(F)c1)N[C@H]1CC[C@@]2(c3cccc(Br)c3)CCN(Cc3ccccc3)[C@H]2C1 [CBK047515] | 107
COc1ccc(Nc2cccc(-c3ccc(CCC(=O)O)cc3)n2)cc1 [CBK036943] | 106
Cc1cccc(-c2ncc(C(=O)NCCc3c[nH]cn3)cc2-c2ccncc2)c1 [CBK036678] | 86.9
CNC(=O)C1(Cc2ccccc2-c2ccccc2C)CCN(C(=O)Cc2ccccc2)CC1 [CBK285901] | 106
OCCN(CCO)Cc1c(Cl)cccc1Cl [CBK261887] | 93
COc1cncc(-c2cc(Nc3cc(OC)c(OC)cc3C)ncn2)c1 [CBK090782] | 84.9
COC(=O)c1c(NC(=O)CC2NCCNC2=O)sc(C)c1C (centres unmarked) [CBK269447] | 92.1
CCc1[nH]c(=O)c(C(=O)N2CCc3[nH]c4c(C)cccc4c3C2)cc1C [CBK281586] | 97.6
c1ccc(COC(c2ccccc2)c2nc3ccccc3n2Cc2ccccc2)cc1 (centres unmarked) [CBK267311] | 98.2

Compound | viability at 28.5 h, 10 µM [%]
CN(CCc1ccncc1)C(=O)CCc1cc(F)ccc1F [CBK304876] | 90.6
Cc1cccc(-n2ncc3c2ncn2c(COc4ccccc4C)nnc32)c1 [CBK265567] | 86.2
CCN1CCN(Cc2nc3c([nH]2)c(=O)n(C)c(=O)n3C)CC1 [CBK269413] | 90.5
O=S(=O)(NCCCn1ccnc1)c1cc(Cl)ccc1Cl [CBK261767] | 105
Cc1ncsc1CCOc1ccc(C(F)(F)F)cn1 [CBK115790] | 101
CCCOc1ccc(O)cc1 [CBK122802] | 97.8
COc1ccc2oc(C(=O)NC(C)(C)CN3CCCCC3)cc2c1 [CBK282053] | 93.8
CC(C)(CNC(=O)Cn1cc(C(=O)NC2CCCCC2)ccc1=O)c1cccc(F)c1 [CBK286110] | 88.4
CC(c1ccncn1)N(C)C(=O)NCc1cccc(CN(C)C)c1 (centres unmarked) [CBK307667] | 89.9
COC(=O)c1ccc(N2CCN(Cc3ccc(CO)o3)C(C)C2)cc1 (centres unmarked) [CBK305394] | 83.9
CN1CCC(N(C)C(=O)NCCN2CCOCC2)C1 (centres unmarked) [CBK156002] | 96.3
Cc1nc2ccc(C(=O)N3CCC(O)(c4ccccc4C)CC3)cc2[nH]1 [CBK283300] | 95.8
COc1ccc([C@@]23CC[C@@H](NC(=O)Nc4nc(Cl)cc(Cl)n4)C[C@@H]2N(C)CC3)cc1OC [CBK067083T] | 96.3
CNC(=O)C1(Cc2ccc(-c3ccccc3)cc2)CCN(C(=O)c2ccccc2)CC1 [CBK285761] | 96.5
O=C(CN1CCSCC1)NNC(=S)Nc1ccccc1 [CBK262445] | 102
Cc1ncccc1C(=O)NC(CC(C)C)c1nnc2n1CCNCC2 (centres unmarked) [CBK307348] | 80.5
COc1ccc(C2CCN(C(=O)C3CCCO3)CC2)cc1 (centres unmarked) [CBK285473] | 102
COc1nc(-c2ccccc2)ccc1-c1noc(COc2ccccc2)n1 [CBK266841] | 91.8
c1cnn(CCCNc2nc3nonc3nc2N2CCCCCC2)c1 [CBK307318] | 110
O=C(OCC=C=CSc1ccc([N+](=O)[O-])cc1)c1ccc(F)cc1 [CBK265650] | 117
